{"source": "paper PMC7876106", "about": "(Scientific Reports, 2021)", "assay_type_in_all_cases": "binding", "key": {"antisense TERRA [1]": {"tested_on": "antisense TERRA", "test": "FP assay, full-length TRF2 protein with FAM labeled antisense TERRA", "settings": "FAM labeled oligo"}, "antisense TeloDNA [2]": {"tested_on": "antisense TeloDNA", "test": "FP assay, full-length TRF2 protein with FAM labeled antisense TeloDNA", "settings": "FAM labeled oligo"}, "TERRA": {"tested_on": "TERRA", "test": "FP assay, FITC labeled TRF2 peptide with TERRA", "settings": "10 nM FITC peptide", "procedure": "(§1) All the nucleic acids, peptides and chemicals were dissolved in buffer containing 20 mM HEPES pH7.5, 150 mM salt (KCl, NaCl, LiCl) at the stock concentration of 1 mM. For peptide and nucleic acid interactions, 25μL of each nucleic acids with a sequential twofold dilutions starting from 50 μM was added into each well of 96-well plate followed by adding 25μL of 10 nM FITC labeled TRF2 peptide. For compounds and nucleic acid interactions, 20μL of each compounds with a sequential twofold dilutions starting from 50 μM were added into each well of 96-well plate followed by adding 5μL of 20 ng/mL tRNA and 25μL of 10 nM FAM labeled nucleic acids. For inhibition assay, 5μL FITC labeled TRF2 GAR peptide (10 nM final concentration) and 10 μL oligos (5 μM final concentration) were mixed, followed by adding 5μL of each compound with a sequential twofold dilutions starting from 50 μM into each well of 384-well plate. All components were mixed thoroughly, and the plate was incubated at room temperature for 1 h before placing in an Envision Plate Reader for reading at 495/520 nm. All data curves were fitted using Prism 8.0."}, "TeloDNA": {"tested_on": "TeloDNA", "test": "FP assay, FITC labeled TRF2 peptide with TeloDNA", "settings": "10 nM FITC peptide", "procedure": "as §1"}, "antisense TeloDNA [3]": {"tested_on": "antisense TeloDNA", "test": "FP assay, FITC labeled TRF2 peptide with antisense TeloDNA", "settings": "10 nM FITC peptide", "procedure": "as §1"}, "antisense TERRA [4]": {"tested_on": "antisense TERRA", "test": "FP assay, FITC labeled TRF2 peptide with antisense TERRA", "settings": "10 nM FITC peptide", "procedure": "as §1"}}, "note": "pEC50: −log10 of the molar value.", "data": [{"substance": "full-length TRF2 protein: purified recombinant full-length TRF2 protein", "values": [{"measurement": "full-length TRF2 affinity for antisense TERRA", "setting": "antisense TERRA [1]", "result": "lacks measurable affinity"}, {"measurement": "full-length TRF2 affinity for antisense TeloDNA", "setting": "antisense TeloDNA [2]", "result": "lacks measurable affinity"}]}, {"substance": "RAAGRRASRSSGRARRGRHEPGLGGPAERGAGEAR [TRF2 GAR, 35-residue peptide containing the GAR domain of TRF2]", "values": [{"measurement": "pEC50", "setting": "TERRA; read-out: EC50 (affinity), peptide binding to TERRA", "result": 5.57}, {"measurement": "pEC50", "setting": "TeloDNA; read-out: EC50 (affinity), peptide binding to TeloDNA", "result": 5.05}, {"measurement": "peptide binding to antisense TeloDNA", "setting": "antisense TeloDNA [3]", "result": "Neither TRF2 GAR nor the Ala mutant showed any detectable binding"}, {"measurement": "peptide binding to antisense TERRA", "setting": "antisense TERRA [4]", "result": "Neither TRF2 GAR nor the Ala mutant showed any detectable binding"}]}, {"substance": "AAAGAAASASSGAAAAGAHEPGLGGPAEAGAGEAA [Ala mutant, control peptide with each of the 10 arginine residues mutated to alanine]", "values": [{"measurement": "peptide binding to TERRA", "setting": "TERRA", "result": "no detectable binding"}, {"measurement": "peptide binding to TeloDNA", "setting": "TeloDNA", "result": "no detectable binding"}, {"measurement": "peptide binding to antisense TeloDNA", "setting": "antisense TeloDNA [3]", "result": "Neither TRF2 GAR nor the Ala mutant showed any detectable binding"}, {"measurement": "peptide binding to antisense TERRA", "setting": "antisense TERRA [4]", "result": "Neither TRF2 GAR nor the Ala mutant showed any detectable binding"}]}]}
